For series [1], the system named is OC[C@H]1O[C@@](CO)(O[C@H]2O[C@H](CO)[C@@H](O)[C@H](O)[C@H]2O)[C@@H](O)[C@@H]1O. Briefly: Kinetic parameters towards sucrose donor, double mutant A289P-F290L. It is filed as biochemical, Neisseria polysaccharea. The note with it: other: sucrose donor (0-500 mM), Eadie-Hofstee plot, 30° C., pH 7.0. As for the experimental part:
(§1) The double mutants A289P-F290C, A289P-F290I and A289P-F290L were produced and purified, as previously described in Example 1-1. The protein content was determined by the Nanodrop ND-1000 spectrophotometer. These mutants were tested on sucrose alone or supplemented with α-D-GlcpNAc-OAll acceptor, and compared to wtAS and F290K. Assays were performed at 30° C. in 50 mM Tris-HCl buffer, pH=7.0.
(§2) Enzyme assays were carried out in a total volume of 2 mL containing pure enzyme (0.073 mg, 0.153 mg and 0.092 mg when using A289P-F290C, A289P-F2901 and A289P-F290L, respectively).
(§3) Kinetic studies of AS variants were performed in the presence of sucrose (0-500 mM). At regular time intervals (2-5 min), aliquots (200 μL) were removed, heated (95° C., 2 min) and centrifuged (18000 g, 5 min) All the samples were filtered on a 0.22 μm membrane and analyzed using HPLC material previously described. The initial rate of sucrose consumed, corresponding to the initial rate of fructose released, was expressed in mole of fructose released per minute and per gram of enzyme. The kinetic parameters kcat and Km were calculated using Eadie-Hofstee plot.

Series [2] has the same test system. Briefly: Kinetic parameters towards sucrose donor, double mutant A289P-F290I. The note with it: other: sucrose donor (0-500 mM), Eadie-Hofstee plot, 30° C., pH 7.0. It is filed as biochemical, Neisseria polysaccharea. As for the experimental part:
as §1, §2, §3

For series [3], the system named is Neisseria polysaccharea amylosucrase 1G5A, wild type (wtAS, ASNPwt), SEQ ID NO: 13. The note with it: sucrose donor, data from ref. 83; cited from earlier work.
Series [4] has as its target Neisseria polysaccharea amylosucrase 1G5A (parent SEQ ID NO: 13) variant A289P-F290I (Neisseria polysaccharea, UniProt Q9ZEU2, A297P/F298I/G545D). Briefly: Kinetic parameters towards sucrose donor, double mutant A289P-F290I. It is filed as biochemical. The note with it: sucrose donor (0-500 mM); Eadie-Hofstee plot; 30° C., pH 7.0. As for the experimental part: as §1, §2, §3

Series [5] has as its target Neisseria polysaccharea amylosucrase 1G5A (parent SEQ ID NO: 13) variant F290K (Neisseria polysaccharea, UniProt Q9ZEU2, F298K/G545D). Briefly: Kinetic parameters towards sucrose donor, variant F290K. In kind it is biochemical. The note with it: F290K could not be saturated with sucrose. The protocol:
Production and purification of AS variants were performed as previously described (ref. 45). […] The enzymes were desalted by size exclusion chromatography using P6DG columns (GE Healthcare Biosciences) at +4° C. and stored in elution buffer (50 mM Tris-HCl, pH 7.0, 150 mM NaCl) at −80° C. The protein content was determined by micro-Bradford method, using bovine serum albumin as standard (ref. 56).
All assays were performed at 30° C. in 50 mM Tris buffer, pH=7.0. For the acceptor reactions, F290D, F290K and ASNPwt (1G5A) were tested on α-D-GlcpNAc-OAll.
Enzyme assays were carried out in a total volume of 2 mL containing pure enzyme (0.115 mg and 0.106 mg when using ASNPwt and F290K, respectively). Catalytic efficiency (Eff=kcat/KM) of ASNPwt and F290K variant was determined with both sucrose (D=Donor) and α-D-GlcpNAc-OAll (A=Acceptor) as variable substrates. […] For each experiment, the reaction velocity corresponding to the acceptor glucosylation was determined by the formation of α-D-Glcp-(1→4)-α-D-GlcpNAc-OAll (called Vi(Dp2)), corresponding to the kinetics of the reaction of interest.
Initial velocities were fitted to the Michaelis-Menten equation using Sigma-Plot. As saturation was not achieved with the mutant, efficiency was calculated by linear regression analysis of the velocity versus substrate concentration plot. […]

Series [6] addresses Neisseria polysaccharea amylosucrase 1G5A (parent SEQ ID NO: 13) variant A289P-F290L (Neisseria polysaccharea, UniProt Q9ZEU2, A297P/F298L/G545D). As to the kind of experiment: Kinetic parameters towards sucrose donor, double mutant A289P-F290L. The note with it: sucrose donor (0-500 mM); Eadie-Hofstee plot; 30° C., pH 7.0. It is filed as biochemical. The protocol:
as §1, §2, §3

Series [7] concerns the target Neisseria polysaccharea amylosucrase 1G5A (parent SEQ ID NO: 13) variant A289P-F290C (Neisseria polysaccharea, UniProt Q9ZEU2, A297P/F298C/G545D). As to the kind of experiment: Kinetic parameters towards sucrose donor, double mutant A289P-F290C. It is filed as biochemical. The note with it: sucrose donor (0-500 mM); Eadie-Hofstee plot; 30° C., pH 7.0. The protocol:
as §1, §2, §3

Among the data in US20110086767A1, “MUTANTS OF GLYCOSIDE HYDROLASES AND USES THEREOF FOR SYNTHESIZING COMPLEX OLIGOSACCHARIDES AND DISACCHARIDE INTERMEDIATES” (Institut Pasteur, priority 2008, published 2011) are Km, kcat and affinity for sucrose values, retold here.

Turning to “Neisseria polysaccharea amylosucrase 1G5A (parent SEQ ID NO: 13) variant A289P-F290L (Neisseria polysaccharea; A297P/F298L/G545D)”, in series [1], the Km is recorded as 10.1 mM.
“Neisseria polysaccharea amylosucrase 1G5A (parent SEQ ID NO: 13) variant A289P-F290I (Neisseria polysaccharea; A297P/F298I/G545D)”: the Km in series [2] is 17.2 mM.
`OC[C@H]1O[C@@](CO)(O[C@H]2O[C@H](CO)[C@@H](O)[C@H](O)[C@H]2O)[C@@H](O)[C@@H]1O` [sucrose]: the Km in series [3] is 50.2 mM. For the same molecule, the kcat in series [3] was 1.3 s⁻¹; in series [4], 1.1 s⁻¹; in series [6], 2.1 s⁻¹; in series [7], 2.8 s⁻¹. Also, the affinity for sucrose entry in series [5] was “poor affinity for sucrose”.

Usually Km stands for the substrate concentration at which the rate is half of its maximum. The kcat is the maximal rate divided by the concentration of active sites.
